Measurements: patent publication US20260294770A1, “FORMULATIONS OF NARINGENIN” (DEBUT BIOTECHNOLOGY, INC., priority 2023, published 2026)

Legend:
LCE5A = assay: Upregulation of gene expression and/or activity, 1% naringenin: LCE5A
Excerpt: (§1) In certain embodiments, administration of a composition comprising naringenin leads to up-regulation of LCE5A, KRT77, ALOXE3, KRT1, HPGD, MUCL1, CASP14, WFDC12, KRT10, DNASE1L2, IL37, SERPINB12, HAL, UPK1A, CALML5, LCE2B, and/or MIR205. In certain embodiments, administration of a composition comprising naringenin leads to down-regulation of CCL11, CSF2, IL23A, IL11, BMP6, IL13RA2, C2CD4A, NR4A2, C2CD4B, FGF2, FARP4, GDF15, THBS1, HSPA1A, PTGS2, and/or DKK1. Tables 10 and 11 provide data for upregulation and downregulation respectively of certain genes after administration of compositions comprising 1% naringenin.
Late cornified envelope protein 5A (LCE5A) is involved in formation of outer skin protective barrier. LCE5A may also be involved in keratinization. In certain embodiments, upregulation of expression and/or activity of LCE5A results in improved formation of the outer skin protective barrier. Thus, administration of compositions comprising naringenin, which leads to upregulation of LCE5A, results in increased skin barrier strength. In certain embodiments, the administration of composition comprising naringenin results in at least about 20 to about 50-fold upregulation of expression and/or activity of LCE5A. […]

KRT1 = assay: Upregulation of gene expression and/or activity, 1% naringenin: KRT1
Excerpt: as §1
Keratin 1 (KRT1) plays a role in maintaining the skin strength and resiliency. Keratin 1 is produced in keratinocytes in the outer layer of the skin (the epidermis), including the skin on the palms of the hands and soles of the feet. The keratin 1 protein partners with another keratin protein, either keratin 9 or keratin 10, to form molecules called keratin intermediate filaments. These filaments assemble into strong networks that provide strength and resiliency to the skin and protect it from being damaged by friction and other everyday physical stresses. In certain embodiments, the administration of composition comprising naringenin results in upregulation of KRT1, which has a role in enhancing the strength and resiliency of the skin. […]

HPGD = assay: Upregulation of gene expression and/or activity, 1% naringenin: HPGD
Excerpt: as §1
Hydroxyprostaglandin dehydrogenase (HPGD) has an anti-inflammatory function. In particular, it is involved in degradation of molecules that lead to inflammatory signaling. For example, HPGD is involved in degradation of prostaglandin, which is involved in inflammatory signaling pathway. In certain embodiments, upregulation of expression and/or activity of HPGD leads to an anti-inflammatory effect. In certain embodiments, upregulation of HPGD leads to increase in degradation of signaling molecules that are involved in inflammation. Thus, the upregulation of HPGD leads to reduced inflammation. In certain embodiments, the administration of composition comprising naringenin results in at least about 5 to about 20-fold upregulation of expression and/or activity of HPGD. […]

DNASE1L2 = assay: Upregulation of gene expression and/or activity, 1% naringenin: DNASE1L2
Excerpt: as §1
Deoxyribonuclease-1-like 2 (DNASE1L2) plays a role in recycling of dying cells. Hair, nails, and the cornified layer of the epidermis, i.e. the stratum corneum, consist of cornified keratinocytes, also known as corneocytes. The process of cornification involves the cross-linking of structural proteins and leads to the high mechanical stability of corneocytes which, along with the formation of stable desmosomal links between cells, is essential for the resistance of epidermal structures to stress from the environment DNASE1L2 is a keratinocyte-specific DNase. DNASE1L2 breakdown of the nucleus in skin appendages and distinct epithelia whereas cornification of the interfollicular epidermis. […]

IL37 = assay: Upregulation of gene expression and/or activity, 1% naringenin: IL37
Excerpt: as §1

MIR205 = assay: Upregulation of gene expression and/or activity, 1% naringenin: MIR205
Excerpt: as §1
MicroRNA 205 (MIR205) plays a role in clearance of damaged cells. In certain embodiments, administration of compositions comprising naringenin leads to upregulation of MIR205, which leads to increase clearance of damaged cells. This increase in clearance of damaged cells leads to enhancement in cell turnover and/or recycling, which results in an improvement in anti-aging effect. […] In certain embodiments, the administration of composition comprising naringenin results in at least about 2 to about 10-fold upregulation of expression and/or activity of MIR205. In certain embodiments, the administration of composition comprising naringenin results in at least about five (5) fold upregulation of expression and/or activity of MIR205.

THBS1 = assay: Downregulation of gene expression and/or activity, 1% naringenin: THBS1; details: negative = downregulation
Excerpt: as §1

[1] = DPPH antioxidant activity assay (organic medium); format: biochemical; details: for % Radical Inhibition: organic medium
Excerpt: The 2,2-diphenyl-1-picrylhydrazyl (DPPH) antioxidant assay is designed to evaluate the antioxidant activity of compositions comprising naringenin in an organic medium.
2,2-diphenyl-1-picrylhydrazyl (DPPH) is a stable free radical used to evaluate free radical scavenging capacity of a material. In the presence of an antioxidant DPPH is reduced, resulting in the formation of a colorless solution. Reduction of absorbance at 517 nm is standardized to solvent control as an indication of DPPH scavenging.

superoxide dismutase = details: consumed orally; cited from earlier work

Which “Fold-increase in expression and/or activity of LCE5A” value (LCE5A) does the source give for `O=C1C[C@@H](c2ccc(O)cc2)Oc2cc(O)cc(O)c21` [naringenin, (2S)-5,7-Dihydroxy-2-(4-hydroxyphenyl)-2,3-dihydro-4H-1-benzopyran-4-one] here?
Its value is ~33 fold.

And the “Fold-increase in expression and/or activity of KRT1” value (KRT1)?
Its value is ~7 fold.

And the “Fold-increase in expression and/or activity of HPGD” value (HPGD)?
Its value is ~10 fold.

What about the “Fold-increase in expression and/or activity of DNASE1L2” value (DNASE1L2) of the same compound?
The value was ~9 fold.

And the “Fold-increase in expression and/or activity of IL37” value (IL37)?
Its value is 11 fold.

What about the “Fold-increase in expression and/or activity of MIR205” value (MIR205) of the same compound?
The value was ~6 fold.

What about the “Fold-increase (downregulation table) THBS1” value (THBS1) of the same compound?
The value was −6 fold.

What about the “% Radical Inhibition” value ([1]; 0.50 % w/w naringenin) of the same compound?
Its value is 18.82%.

What about the “% Radical Inhibition” value ([1]; 1.00 % w/w naringenin) of the same compound?
Its value is 28.44%.

And the “% Radical Inhibition” value ([1]; 2.00 % w/w naringenin)?
Its value is 46.82%.

What about the “Lowest concentration with antioxidant activity” value ([1]; organic solvent systems) of the same compound?
Its value is ≤ 0.2 % w/w.

And the Superoxide dismutase (superoxide dismutase)?
Its Superoxide dismutase is “increase”.
